# Measurements reported in the CombiSolv-Exp solvation set (Vermeire and Green 2021).
# Assay: solvent given as SMILES
compound,measurement,setting,value
c1ccncc1,"solvation free energy, 298 K",in C1COCCO1,-5.69 kcal/mol
same,"solvation free energy, 298 K",in CC(=O)N(C)C,-5.76 kcal/mol
same,"solvation free energy, 298 K",in CC(C)(C)O,-5.4 kcal/mol
same,"solvation free energy, 298 K",in CC(C)=O,-5.42 kcal/mol
same,"solvation free energy, 298 K",in CC(C)CC(C)(C)C,-4.03 kcal/mol
same,"solvation free energy, 298 K",in CC(C)CO,-5.67 kcal/mol
same,"solvation free energy, 298 K",in CC(C)O,-5.27 kcal/mol
same,"solvation free energy, 298 K",in CCC(C)=O,-5.37 kcal/mol
same,"solvation free energy, 298 K",in CCC(C)O,-5.63 kcal/mol
same,"solvation free energy, 298 K",in CCCCCC,-4.19 kcal/mol
same,"solvation free energy, 298 K",in CCCCCCCCCCCCCCCC,-4.04 kcal/mol
same,"solvation free energy, 298 K",in CCCCCCCCO,-5.32 kcal/mol
same,"solvation free energy, 298 K",in CCCCN(C=O)CCCC,-5.32 kcal/mol
same,"solvation free energy, 298 K",in CCCCO,-5.39 kcal/mol
same,"solvation free energy, 298 K",in CCCO,-5.44 kcal/mol
same,"solvation free energy, 298 K",in CCO,-5.7 kcal/mol
same,"solvation free energy, 298 K",in CNC(C)=O,-5.35 kcal/mol
same,"solvation free energy, 298 K",in O,-4.69 kcal/mol
same,"solvation free energy, 298 K",in [2H]O[2H],-4.52 kcal/mol
O=C(O)c1cccc2ccccc12,"solvation free energy, 298 K",in C=CCCCCCCC=C,-9.51 kcal/mol
same,"solvation free energy, 298 K",in C=CCCCCCCCCCCCCCC,-9.45 kcal/mol
same,"solvation free energy, 298 K",in O,-9.04 kcal/mol
ClC1=C(Cl)C2(Cl)C3C(Cl)C=CC3C1(Cl)C2(Cl)Cl (configuration not stated),"solvation free energy, 298 K",in CCCCCCCCC=CCCCCCCCC(=O)OCC(COC(=O)CCCCCCCC=CCCCCCCCC)OC(=O)CCCCCCCC=CCCCCCCCC,-13.5 kcal/mol
same,"solvation free energy, 298 K",in CCCCCCCCO,-10.6 kcal/mol
same,"solvation free energy, 298 K",in O,-2.55 kcal/mol
CN(C)CCOC(c1ccccc1)c1ccccc1,"solvation free energy, 298 K",in O,-9.34 kcal/mol
CCCN(CCC)c1c([N+](=O)[O-])cc(C(F)(F)F)cc1[N+](=O)[O-],"solvation free energy, 298 K",in O,-3.25 kcal/mol
Clc1cc(Cl)c(-c2c(Cl)cc(Cl)cc2Cl)c(Cl)c1,"solvation free energy, 298 K",in CCCCCCCCO,-12.5 kcal/mol
same,"solvation free energy, 298 K",in O,-1.96 kcal/mol
CC(C)CC(C)O (configuration not stated),"solvation free energy, 298 K",in CCCCCCCC,-4.63 kcal/mol
same,"solvation free energy, 298 K",in CCCCCCCCCC,-4.56 kcal/mol
CC(C(=O)O)c1ccc2c(c1)[nH]c1ccc(Cl)cc12 (configuration not stated),"solvation free energy, 298 K",in O,-15.1 kcal/mol
CN(C)CCC=C1c2ccccc2CCc2ccccc21,"solvation free energy, 298 K",in O,-7.43 kcal/mol
COc1cccc(N)c1,"solvation free energy, 298 K",in O,-7.29 kcal/mol
Clc1ccc(Cl)c(Cl)c1,"solvation free energy, 298 K",in CCCCCC,-6.98 kcal/mol
same,"solvation free energy, 298 K",in O,-1.16 kcal/mol
CCCCCCCCC=CCCCCCCCCCCCC(=O)OC,"solvation free energy, 298 K",in O,-1.09 kcal/mol
CCCCN(C)N=O,"solvation free energy, 298 K",in CC(C)CC(C)(C)C,-5.73 kcal/mol
same,"solvation free energy, 298 K",in O,-5.37 kcal/mol
c1ccc(Oc2ccccc2)cc1,"solvation free energy, 298 K",in O,-2.87 kcal/mol
c1ccc2c(c1)OCCOCCOc1ccccc1OCCOCCO2,"solvation free energy, 298 K",in Cc1cccc(C)c1,-21.7 kcal/mol
same,"solvation free energy, 298 K",in O,-18.2 kcal/mol
C1CCOCC1,"solvation free energy, 298 K",in C1COCCO1,-4.53 kcal/mol
same,"solvation free energy, 298 K",in CC(C)CCl,-4.65 kcal/mol
same,"solvation free energy, 298 K",in CCC(C)Cl,-4.65 kcal/mol
same,"solvation free energy, 298 K",in CCCCCCCCCCCCCCCC,-3.89 kcal/mol
same,"solvation free energy, 298 K",in CCCCCCCCO,-4.34 kcal/mol
same,"solvation free energy, 298 K",in CCCCCl,-4.71 kcal/mol
same,"solvation free energy, 298 K",in O,-3.12 kcal/mol
same,"solvation free energy, 298 K",in [2H]O[2H],-3.08 kcal/mol
CCCCCC(=O)CC(C)=O,"solvation free energy, 298 K",in O,-4.3 kcal/mol
C=C(Cl)Cl,"solvation free energy, 298 K",in CCO,-3.25 kcal/mol
same,"solvation free energy, 298 K",in CO,-2.95 kcal/mol
same,"solvation free energy, 298 K",in O,0.22 kcal/mol
CC(C)CN(CC(C)C)N=O,"solvation free energy, 298 K",in CC(C)CC(C)(C)C,-7.35 kcal/mol
same,"solvation free energy, 298 K",in O,-4.84 kcal/mol
CCCCC1CCCCC1,"solvation free energy, 298 K",in CCC(C)=O,-5.97 kcal/mol
same,"solvation free energy, 298 K",in CCO,-5.65 kcal/mol
same,"solvation free energy, 298 K",in CN1CCCC1=O,-5.09 kcal/mol
same,"solvation free energy, 298 K",in O,1.96 kcal/mol
same,"solvation free energy, 298 K",in O=Cc1ccco1,-4.97 kcal/mol
same,"solvation free energy, 298 K",in OCCO,-2.38 kcal/mol
same,"solvation free energy, 298 K",in OCCOCCO,-3.78 kcal/mol
OCC(O)C(O)C(O)CO (configuration not stated),"solvation free energy, 298 K",in CC(C)O,-13.4 kcal/mol
same,"solvation free energy, 298 K",in CCCCO,-13.3 kcal/mol
same,"solvation free energy, 298 K",in CCO,-13.8 kcal/mol
same,"solvation free energy, 298 K",in CN(C)C=O,-15.4 kcal/mol
same,"solvation free energy, 298 K",in O,-16.6 kcal/mol
C1=CCCCCCC1,"solvation free energy, 298 K",in CN1CCCC1=O,-4.91 kcal/mol
same,"solvation free energy, 298 K",in CN(C)C=O,-4.77 kcal/mol
c1ccc2c(c1)Sc1ccccc1S2,"solvation free energy, 298 K",in C1COCCO1,-12.8 kcal/mol
same,"solvation free energy, 298 K",in CC(C)CC(C)(C)C,-11.1 kcal/mol
same,"solvation free energy, 298 K",in CC(C)CCO,-11.3 kcal/mol
same,"solvation free energy, 298 K",in CC(C)CO,-11.1 kcal/mol
same,"solvation free energy, 298 K",in CC(C)O,-11 kcal/mol
same,"solvation free energy, 298 K",in CC(C)OC(C)C,-11.7 kcal/mol
same,"solvation free energy, 298 K",in CCC(C)O,-11.2 kcal/mol
same,"solvation free energy, 298 K",in CCCCC(CC)CO,-11.4 kcal/mol
same,"solvation free energy, 298 K",in CCCCCC,-11.4 kcal/mol
same,"solvation free energy, 298 K",in CCCCCCC,-11.3 kcal/mol
same,"solvation free energy, 298 K",in CCCCCCCC,-11.4 kcal/mol
same,"solvation free energy, 298 K",in CCCCCCCCCC,-11.3 kcal/mol
same,"solvation free energy, 298 K",in CCCCCCCCCCO,-11.6 kcal/mol
same,"solvation free energy, 298 K",in CCCCCCCCO,-11.6 kcal/mol
same,"solvation free energy, 298 K",in CCCCCCCO,-11.6 kcal/mol
same,"solvation free energy, 298 K",in CCCCCCO,-11.5 kcal/mol
same,"solvation free energy, 298 K",in CCCCCO,-11.5 kcal/mol
same,"solvation free energy, 298 K",in CCCCO,-11.4 kcal/mol
same,"solvation free energy, 298 K",in CCCO,-11.3 kcal/mol
same,"solvation free energy, 298 K",in CCOCC,-12.1 kcal/mol
same,"solvation free energy, 298 K",in CO,-10.9 kcal/mol
same,"solvation free energy, 298 K",in COC(C)(C)C,-12.1 kcal/mol
